Measurements: ChEMBL document CHEMBL5329212, “In situ click chemistry-based discovery of 1,2,3-triazole-derived diarylpyrimidines as novel HIV-1 NNRTIs by exploiting the tolerant region I in binding pocket” (Bioorg Med Chem, 2023)
≈ marks a conversion by molar mass, not a printed value.

How the values were obtained:
[1] = Half life in Wistar rat at 2 mg/kg, iv measured upto 8 hrs by LC-MS/MS analysis; format: ADME, organism-based; details: in vivo
[2] = system: Human immunodeficiency virus 1; assay: Antiviral activity against HIV-1 harboring RT RES056 mutant infected in human MT4 cells assessed as protection against virus-induced cytopathic effect measured after 5 days by MTT assay; format: functional, organism-based; details: Human immunodeficiency virus 1, MT4, 120 h
[3] = system: Human immunodeficiency virus 1; assay: Antiviral activity against HIV-1 harboring RT F227L/V106A double mutant infected in human MT4 cells assessed as protection against virus-induced cytopathic effect measured after 5 days by MTT assay; format: functional, organism-based; details: Human immunodeficiency virus 1, MT4, 120 h
[4] = system: Human immunodeficiency virus 1; assay: Antiviral activity against HIV-1 harboring RT Y188L mutant infected in human MT4 cells assessed as protection against virus-induced cytopathic effect measured after 5 days by MTT assay; format: functional, organism-based; details: Human immunodeficiency virus 1, MT4, 120 h
[5] = Cytotoxicity against human MT4 cells assessed as reduction in cell viability measured after 5 days by MTT assay; format: toxicity, cell-based; details: time 5 day
[6] = system: Human immunodeficiency virus 1; assay: Antiviral activity against HIV-1 harboring RT Y181C mutant infected in human MT4 cells assessed as protection against virus-induced cytopathic effect measured after 5 days by MTT assay; format: functional, organism-based; details: Human immunodeficiency virus 1, MT4, 120 h
[7] = system: Human immunodeficiency virus 1; assay: Antiviral activity against HIV-1 harboring RT K103N mutant infected in human MT4 cells assessed as protection against virus-induced cytopathic effect measured after 5 days by MTT assay; format: functional, organism-based; details: Human immunodeficiency virus 1, MT4, 120 h
[8] = biological target: Human immunodeficiency virus type 1 reverse transcriptase (Human immunodeficiency virus 1, UniProt Q72547); assay: Inhibition of HIV-1 reverse transcriptase incubated for 1 hrs in presence of biotin-labeled dNTPs by ELISA assay
[9] = system: Human immunodeficiency virus 1; assay: Antiviral activity against HIV-1 harboring RT E138K mutant infected in human MT4 cells assessed as protection against virus-induced cytopathic effect measured after 5 days by MTT assay; format: functional, organism-based; details: Human immunodeficiency virus 1, MT4, 120 h
[10] = system: Human immunodeficiency virus 1; assay: Antiviral activity against HIV-1 harboring RT L100I mutant infected in human MT4 cells assessed as protection against virus-induced cytopathic effect measured after 5 days by MTT assay; format: functional, organism-based; details: Human immunodeficiency virus 1, MT4, 120 h
[11] = biological target: Human immunodeficiency virus type 1 reverse transcriptase (Human immunodeficiency virus 1) (UniProt Q72547); assay: Inhibition of HIV-1 reverse transcriptase at 0.267 uM incubated for 1 hrs in presence of biotin-labeled dNTPs by ELISA assay relative to control
[12] = system: Human immunodeficiency virus 1; assay: Antiviral activity against wild type HIV-1 IIIB infected in human MT4 cells assessed as protection against virus-induced cytopathic effect measured after 5 days by MTT assay; format: functional, organism-based; details: Human immunodeficiency virus 1, IIIB, MT4, 120 h
[13] = Aqueous solubility of the compound at pH 7.4 at 0.1 to 10 mg; format: physicochemical; details: aqueous medium, dose 0.1-10 mg
[14] = Aqueous solubility of the compound at pH 2 at 0.1 to 10 mg; format: physicochemical; details: aqueous medium, dose 0.1-10 mg
[15] = Aqueous solubility of the compound at pH 7.0 at 0.1 to 10 mg; format: physicochemical; details: aqueous medium, dose 0.1-10 mg

Row | SMILES | half-life [1] [min] | EC50 [2] [µM] | EC50 [3] [µM] | EC50 [4] [µM] | CC50 at 120 h [5] [µM] | EC50 [6] [µM] | EC50 [7] [nM] | IC50 [8] [nM] | EC50 [9] [nM] | EC50 [10] [nM] | inhibition [11] [%] | EC50 [12] [nM] | solubility [13] [µg/mL] | solubility [14] [µg/mL] | solubility [15] [µg/mL]
1 | Cc1cc(C#N)cc(C)c1Oc1nc(NC2CCN(Cc3ccc(S(N)(=O)=O)cc3)CC2)nc2ncsc12 | 120 |  |  |  |  |  |  |  |  |  |  |  |  |  | 
2 | Cc1cc(C#N)cc(C)c1Oc1nc(NC2CCN(Cc3ccc(S(N)(=O)=O)cc3)CC2)nc2scnc12 | 54 |  |  |  |  |  |  |  |  |  |  |  |  |  | 
3 | Cc1cc(C#N)cc(C)c1Oc1nc(Nc2ccc(-c3cn(Cc4ccc(C(F)(F)F)cc4F)nn3)cc2)nc2ccsc12 |  | 34.4 | 21.8 | 18.6 | 129 | 3.69 | 1310 | 1090 | 2450 | 2360 | 63.6 | 810 |  |  | 
4 | COC(=O)c1cccc(-n2cc(-c3ccc(Nc4nc(Oc5c(C)cc(C#N)cc5C)c5sccc5n4)cc3)nn2)c1 |  | ≥ 154 | 23.3 | 58.4 | > 218 | 24.2 | 1750 | 650 | 4980 | 7400 | 42.4 | 1260 |  |  | 
5 | Cc1cn([C@H]2C[C@H](N=[N+]=[N-])[C@@H](CO)O2)c(=O)[nH]c1=O [ZIDOVUDINE] |  | 0.03 | 0.02 | 0.03 | > 749 | 0.03 | 30 |  | 40 |  |  | 30 |  |  | 
6 | Cc1cc(C#N)cc(C)c1Oc1nc(Nc2ccc(-c3cn(Cc4ccc(B(O)O)cc4)nn3)cc2)nc2ccsc12 |  | ≥ 5.55 | 4.09 | 3.17 | 13.4 | 4.87 | 410 | 420 | 650 | 2450 | 50.8 | 160 |  |  | 
7 | O=C1Nc2ccc(Cl)cc2[C@@](C#CC2CC2)(C(F)(F)F)O1 [EFAVIRENZ] |  | 0.43 | 0.5 | 0.43 | > 635 | 0.008 | 130 |  |  | 80 |  |  |  |  | 
8 | Cc1cc(C#N)cc(C)c1Oc1nc(Nc2ccc(-c3cn(Cc4ccc(C(F)(F)F)cc4)nn3)cc2)nc2ccsc12 |  | 25.5 | 8.88 | 3.12 | 88.2 | 2.39 | 330 | 450 | 690 | 840 | 74.2 | 190 |  |  | 
9 | Cc1cc(C#N)cc(C)c1Oc1nc(Nc2ccc(C#N)cc2)nc(N)c1Br [ETRAVIRINE] |  | 0.07 | 0.03 |  | > 461 |  | 4 |  | 20 | 10 | 56.4 |  |  |  | 
10 | Cc1cc(C#N)cc(C)c1Oc1nc(Nc2ccc(-c3cn(-c4ccc5c(c4)OCO5)nn3)cc2)nc2ccsc12 |  | > 223 | 77.8 | 165 | > 223 | 69.4 | 2010 | 1050 | 7170 | 10900 | 50 | 1800 |  |  | 
11 | Cc1cc(C#N)cc(C)c1Oc1nc(Nc2ccc(-c3cn(-c4ccc(C(N)=O)cc4)nn3)cc2)nc2ccsc12 |  | > 164 | > 164 | > 164 | 164 | > 164 | 250 | 800 | 920 | > 164000 | 66.9 | 150 |  |  | 
12 | Cc1cc(C#N)cc(C)c1Oc1nc(Nc2ccc(-c3cn(S(=O)(=O)n4ccnc4)nn3)cc2)nc2ccsc12 |  | ≥ 5.64 | 0.26 | 0.25 | 140 | 0.16 | 10 | 30 | 30 | 80 | 66.5 | 10 | 44.2 (≈ 77.6 µM) | 102 (≈ 179 µM) | 64.7 (≈ 114 µM)
13 | Cc1cc(C#N)cc(C)c1Oc1nc(Nc2ccc(-c3cn(Cc4ccc(S(C)(=O)=O)cc4)nn3)cc2)nc2ccsc12 |  | ≥ 104 | 110 | 124 | > 206 | 20 | 60 | 410 | 140 | 2160 | 51.9 | 40 |  |  | 
14 | Cc1cc(C#N)cc(C)c1Oc1nc(NC2CCN(Cc3ccc(S(N)(=O)=O)cc3)CC2)nc2ccsc12 | 96 |  |  |  |  |  |  |  |  |  | 39.1 |  |  |  | 
15 | CCOC(=O)c1ccc(Cn2cc(-c3ccc(Nc4nc(Oc5c(C)cc(C#N)cc5C)c5sccc5n4)cc3)nn2)cc1 |  | > 208 | > 208 | > 208 | > 208 | 120 | 860 | 430 | 780 | 34800 | 60 | 540 |  |  | 
16 | Cc1cc(C)c(-n2cc(-c3ccc(Nc4nc(Oc5c(C)cc(C#N)cc5C)c5sccc5n4)cc3)nn2)c(C)c1 |  |  |  |  |  |  |  |  |  |  | 4.9 |  |  |  | 
17 | Cc1cc(C#N)cc(C)c1Oc1nc(Nc2ccc(-c3cn(Cc4ccc(S(N)(=O)=O)cc4)nn3)cc2)nc2ccsc12 |  | > 205 | 3.61 | 3.21 | > 205 | 2.63 | 40 | 190 | 50 | 990 | 46.3 | 30 |  |  | 
18 | Cc1cc(C#N)cc(C)c1Oc1nc(Nc2ccc(-c3cn(-c4ccc(CO)cc4)nn3)cc2)nc2ccsc12 |  |  |  |  |  |  |  |  |  |  | 34.7 |  |  |  | 
19 | Cc1cc(C#N)cc(C)c1Oc1nc(Nc2ccc(-c3cn(CC(=O)Nc4ccc(C(F)(F)F)cc4)nn3)cc2)nc2ccsc12 |  | 23.4 | 18.7 | 17.5 | > 195 | 5.5 | 2830 | 2730 | 6680 | 2500 | 43.8 | 2060 |  |  | 
20 | COc1cccc(Cn2cc(-c3ccc(Nc4nc(Oc5c(C)cc(C#N)cc5C)c5sccc5n4)cc3)nn2)c1 |  |  |  |  |  |  |  |  |  |  | 0.4 |  |  |  | 
21 | Cc1cc(C#N)cc(C)c1Oc1nc(Nc2ccc(-c3cn(CCN4C(=O)c5ccccc5C4=O)nn3)cc2)nc2ccsc12 |  | > 204 | 124 | ≥ 157 | > 204 | 45.7 | 2110 | 3360 | 13800 | 3200 | 46.2 | 1850 |  |  | 
22 | Cc1cc(C#N)cc(C)c1Oc1nc(Nc2ccc(-c3cn(Cc4ccc(C(N)=O)cc4)nn3)cc2)nc2ccsc12 |  | > 218 | 7.07 | 12 | > 218 | 6.96 | 80 | 250 | 150 | 1470 | 39.5 | 30 |  |  | 
23 | Cc1cc(C#N)cc(C)c1Oc1nc(Nc2ccc(-c3cn(Cc4ccc(Cl)cc4)nn3)cc2)nc2ccsc12 |  | > 222 | 106 | > 222 | > 222 | 202 | 1110 | 320 | 1080 | 73200 | 44.7 | 550 |  |  | 
24 | Cc1cc(C#N)cc(C)c1Oc1nc(Nc2ccc(-c3cn(CSc4ccccc4)nn3)cc2)nc2ccsc12 |  |  |  |  |  |  |  |  |  |  | 31.9 |  |  |  | 
25 | Cc1cc(C#N)cc(C)c1Oc1nc(Nc2ccc(-c3cn(Cc4cccc(Cl)c4)nn3)cc2)nc2ccsc12 |  |  |  |  |  |  |  |  |  |  | 28.4 |  |  |  | 
26 | Cc1ccnc2c1NC(=O)c1cccnc1N2C1CC1 [NEVIRAPINE] |  | > 951 | > 951 | > 951 | > 951 | 5.66 | 4930 |  | 130 | 1450 |  | 100 |  |  | 
27 | Cc1ccccc1Cn1cc(-c2ccc(Nc3nc(Oc4c(C)cc(C#N)cc4C)c4sccc4n3)cc2)nn1 |  |  |  |  |  |  |  |  |  |  | 33.3 |  |  |  | 
